In patent US9944618B2, “Inhibiting neurotransmitter reuptake” (Mayo Foundation for Medical Education and Research, priority 2013, dated 2018):
Where two headings read alike, the source gives them in different places.

Tests used:
[1] = target: human norepinephrine transporter (Homo sapiens (Human), UniProt P23975); test: Human NET (norepinephrine transporter) uptake assay; format: cell-based; settings: read-out: hNET Ki
Experimental: This protocol was designed to measure inhibition of uptake by the human norepinephrine transporter. […] The Assay Buffer (AB) was 1×HBSS and 0.02 M HEPES.
(§1) The HEK293F cells were transfected with the human norepinephrine transporter and frozen in 1 mL aliquots at about 1E+07 cells/mL. On the day of the experiment, the cells were removed from −80° C. or liquid nitrogen and thawed in a room temperature water bath. The cells were dilute to about 1-2E+06 with Freestyle medium. A 1 mL sample (1:2 dilution) was prepared, and the cells were counted. The cells were spun at 1100 rpm for 5 minutes, and the medium was aspirated off. The cells were resuspend in medium at 1.5E+06 cells/mL for about 60,000 cells per well. 40 μL of cells were dispensed per well in the Biocoat plates. The plates were spun at 1100 rpm for 1 minute to improve homogeneity of the cell layer and were incubated at 37° C. for a minimum of 3 hours.
(§2) 12 μL of test compound (10 mM) in DMSO was added to the wells, and nomifensine was used as a control. […] The neurotransmitter transporter dye was prepared in AB prior to use.
(§3) Due to the proprietary nature of the dye formulation, all dye concentrations were expressed as a percentage of the vendor-recommended dye reconstitution. Thus, the above calculations were valid when both [dye] and Km were expressed in the same units (%). Compounds were tested in triplicate (n=3).

[2] = target: human dopamine transporter (Homo sapiens (Human), UniProt Q01959); test: Human DAT (dopamine transporter) uptake assay; format: cell-based; settings: read-out: hDAT Ki
Experimental: This protocol was designed to measure inhibition of uptake by the human dopamine transporter. […] The Assay Buffer (AB) was 1×HBSS and 0.02 M HEPES.
as §1, with “dopamine” for “norepinephrine”
as §2
Due to the proprietary nature of the dye formulation, all dye concentrations were expressed as a percentage of the vendor-recommended dye reconstitution. Thus, the above calculations were valid when both [dye] and K1 were expressed in the same units (%). Compounds were tested in triplicate (n=3).

[3] = target: human serotonin transporter (Homo sapiens (Human), UniProt P31645); test: Human SERT (serotonin transporter) uptake assay; format: cell-based; settings: read-out: hSERT Ki
Experimental: This protocol was designed to measure inhibition of uptake by the human serotonin transporter. […] The Assay Buffer (AB) was […] and 0.02 M HEPES.
as §1, with “serotonin” for “norepinephrine”
12 μL of test compound (10 mM) in DMSO was added to the wells, and nomifensine was used as a control. Fluoxetine (final assay concentration of 10 μM) was used for background signal. The neurotransmitter transporter dye was prepared in AB prior to use.
as §3

[4] = target: CYP3A4 (Homo sapiens (Human), UniProt P08684); test: Cytochrome P450 inhibition assay, recombinant CYP3A4 (BFC substrate); format: in vitro ADME; settings: recombinant enzyme
Experimental: Recombinant enzymes, 3A4 and 2D6, generated using the ABL yeast expression system were used. […] The assay mixture also included K2HPO4 (pH 7.4; conc. 0.1 M) and NADPH (conc. 1 mM). The incubation time was 30 minutes, and the reference inhibitor was A-naphthoflavone. For CYP2D6, the enzyme amount was 2 pmol per well, and the substrate (7-methoxy-4-(aminomethyl)-coumarin; MAMC) was used at 20 μM. The assay mixture also included K2HPO4 (pH 7.4; conc. 0.1 M) and NADPH (conc. 0.06 mM). The incubation time was 35 minutes, and the reference inhibitor was quinidine.
Briefly, 0.6 μL of serially diluted compound was added to 75 μL water. 10 μL of diluted compound in water was then added to each assay plate. 20 μL of a K2HPO4, enzyme, and substrate mixture was added. After 10 minutes of room temperature pre-incubation, 10 μL of NADPH was added, and the plates were placed at 37° C. for 30 or 35 minutes depending on the enzyme being tested. After the incubation was complete, 20 μL of 0.1% Tris/ACN was added to the plate. The plate was read on a FluorStar fluorescence plate reader.

[5] = target: CYP2D6 (Homo sapiens (Human), UniProt P10635); test: Cytochrome P450 inhibition assay, recombinant CYP2D6 (MAMC substrate); format: in vitro ADME; settings: recombinant enzyme
[6] = pKa of basic centres (Table 1); format: physicochemical
[7] = first base, e.g., an aliphatic primary, secondary, or tertiary amine, read-out: pKa (Base 1)
[8] = second base in the same molecule (if present), read-out: pKa (Base 2)

Sequence of human serotonin transporter (P31645 whole entry): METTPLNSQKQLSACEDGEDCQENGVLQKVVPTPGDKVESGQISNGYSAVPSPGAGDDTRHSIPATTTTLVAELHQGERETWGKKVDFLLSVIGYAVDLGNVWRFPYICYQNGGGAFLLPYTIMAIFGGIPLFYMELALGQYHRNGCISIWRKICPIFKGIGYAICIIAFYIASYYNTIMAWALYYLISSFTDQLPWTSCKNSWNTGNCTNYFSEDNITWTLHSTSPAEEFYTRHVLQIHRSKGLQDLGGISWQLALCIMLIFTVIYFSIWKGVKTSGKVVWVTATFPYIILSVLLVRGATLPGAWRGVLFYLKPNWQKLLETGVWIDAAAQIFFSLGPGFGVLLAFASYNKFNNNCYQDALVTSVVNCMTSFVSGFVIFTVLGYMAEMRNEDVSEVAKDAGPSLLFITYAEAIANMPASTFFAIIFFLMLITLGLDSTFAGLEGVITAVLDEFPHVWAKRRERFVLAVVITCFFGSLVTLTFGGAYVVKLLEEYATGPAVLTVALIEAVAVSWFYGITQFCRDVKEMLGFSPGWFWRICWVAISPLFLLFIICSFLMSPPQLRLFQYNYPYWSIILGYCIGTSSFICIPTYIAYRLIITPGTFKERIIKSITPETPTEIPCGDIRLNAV
Sequence of human dopamine transporter (Q01959 whole entry): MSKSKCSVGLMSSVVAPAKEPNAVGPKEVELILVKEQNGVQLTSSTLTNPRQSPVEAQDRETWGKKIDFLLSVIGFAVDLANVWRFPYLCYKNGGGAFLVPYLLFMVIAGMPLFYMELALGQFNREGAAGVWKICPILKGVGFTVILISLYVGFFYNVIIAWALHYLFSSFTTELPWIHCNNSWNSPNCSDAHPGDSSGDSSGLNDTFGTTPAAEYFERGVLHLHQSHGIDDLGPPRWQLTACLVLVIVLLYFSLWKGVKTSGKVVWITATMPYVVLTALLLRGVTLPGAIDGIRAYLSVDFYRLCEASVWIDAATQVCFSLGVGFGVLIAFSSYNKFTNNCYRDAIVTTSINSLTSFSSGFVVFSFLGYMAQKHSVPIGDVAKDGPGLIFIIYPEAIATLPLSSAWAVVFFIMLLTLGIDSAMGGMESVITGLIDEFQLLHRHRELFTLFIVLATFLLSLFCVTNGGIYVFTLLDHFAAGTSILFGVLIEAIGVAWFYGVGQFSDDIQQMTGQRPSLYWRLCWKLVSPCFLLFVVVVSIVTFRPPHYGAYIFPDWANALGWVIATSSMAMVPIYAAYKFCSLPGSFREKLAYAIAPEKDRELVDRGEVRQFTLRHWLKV
Sequence of human norepinephrine transporter (P23975 whole entry): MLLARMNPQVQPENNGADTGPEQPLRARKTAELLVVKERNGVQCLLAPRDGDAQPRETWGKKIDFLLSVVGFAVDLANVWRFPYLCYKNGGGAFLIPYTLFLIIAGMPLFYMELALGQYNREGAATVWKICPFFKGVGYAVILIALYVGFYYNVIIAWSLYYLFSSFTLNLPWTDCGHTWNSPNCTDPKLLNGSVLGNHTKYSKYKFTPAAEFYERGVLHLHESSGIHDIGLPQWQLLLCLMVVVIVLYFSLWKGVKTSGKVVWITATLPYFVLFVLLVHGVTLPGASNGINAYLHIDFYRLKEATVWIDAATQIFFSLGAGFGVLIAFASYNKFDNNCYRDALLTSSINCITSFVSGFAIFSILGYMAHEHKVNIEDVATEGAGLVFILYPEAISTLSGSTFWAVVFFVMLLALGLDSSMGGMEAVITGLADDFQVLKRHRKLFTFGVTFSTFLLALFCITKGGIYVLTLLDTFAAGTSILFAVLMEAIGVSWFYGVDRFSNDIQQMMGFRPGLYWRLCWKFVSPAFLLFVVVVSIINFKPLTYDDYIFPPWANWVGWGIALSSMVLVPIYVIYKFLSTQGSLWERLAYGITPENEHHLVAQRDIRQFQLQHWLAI
Sequence of CYP2D6 (P10635 whole entry): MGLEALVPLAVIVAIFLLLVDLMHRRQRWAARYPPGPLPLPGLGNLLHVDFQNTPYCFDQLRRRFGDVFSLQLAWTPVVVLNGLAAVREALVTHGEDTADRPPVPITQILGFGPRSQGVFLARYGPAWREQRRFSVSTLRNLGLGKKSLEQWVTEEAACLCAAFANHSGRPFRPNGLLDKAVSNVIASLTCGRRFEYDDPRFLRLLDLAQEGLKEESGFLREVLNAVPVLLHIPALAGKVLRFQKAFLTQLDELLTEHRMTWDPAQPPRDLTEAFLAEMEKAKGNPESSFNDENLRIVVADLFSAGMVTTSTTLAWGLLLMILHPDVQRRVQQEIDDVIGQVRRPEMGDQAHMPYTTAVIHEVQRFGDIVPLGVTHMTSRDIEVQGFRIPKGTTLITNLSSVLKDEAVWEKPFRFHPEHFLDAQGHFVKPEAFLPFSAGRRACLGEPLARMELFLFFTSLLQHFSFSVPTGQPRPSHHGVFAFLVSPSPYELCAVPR
Sequence of CYP3A4 (P08684 whole entry): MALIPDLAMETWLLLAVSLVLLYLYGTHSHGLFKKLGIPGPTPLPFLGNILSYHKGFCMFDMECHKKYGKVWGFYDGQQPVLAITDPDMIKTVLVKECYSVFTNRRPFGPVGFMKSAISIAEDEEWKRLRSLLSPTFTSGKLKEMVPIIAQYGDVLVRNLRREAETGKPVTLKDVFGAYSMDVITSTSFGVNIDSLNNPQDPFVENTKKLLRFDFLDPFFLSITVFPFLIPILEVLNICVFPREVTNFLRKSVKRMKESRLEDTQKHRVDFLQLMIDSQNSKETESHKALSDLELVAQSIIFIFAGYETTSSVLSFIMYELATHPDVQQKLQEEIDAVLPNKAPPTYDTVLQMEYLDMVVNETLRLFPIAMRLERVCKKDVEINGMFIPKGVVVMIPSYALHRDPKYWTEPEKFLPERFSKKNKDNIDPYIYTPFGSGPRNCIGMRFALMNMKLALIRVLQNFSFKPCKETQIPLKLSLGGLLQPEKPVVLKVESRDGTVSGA

| Ki [1] [nM] | Ki [2] [nM] | Ki [3] [nM] | IC50 [4] [nM] | IC50 [5] [nM] | pKa [6, 7] | pKa [6, 8] | SMILES |
| --- | --- | --- | --- | --- | --- | --- | --- |
| 3.2 | 10.6 | 52.5 | 19000 | 130 | 9.6 | – | CNC[C@H](c1ccc2ccccc2c1)[C@H](O)c1cc(F)cc(F)c1 (racemic) [Compound 41] |
| 64.6 | 18.1 | 138 | ≥ 20000 | 2100 | 8.8 | – | CN(C)C[C@H](c1ccc(Cl)c(Cl)c1)[C@H](O)c1ccccc1 (racemic) [Compound 105] |
| 167 | 1570 | 5.2 | 16000 | 220 | 9.8 | – | CNC[C@H](c1ccc(-c2ccccc2)cc1)[C@H](O)c1ccccc1 (racemic) [Compound 113] |
| 17.8 | 46.6 | 73.7 | ≥ 20000 | 1400 | 9.3 | 5.3 | CNC[C@H](c1ccc(Cl)c(Cl)c1)[C@H](O)c1ccncc1 (racemic) [Compound 155] |
| 5.1 | 127 | 5.9 | 9600 | 120 | 9.7 | – | CNC[C@H](c1ccc2ccccc2c1)[C@H](O)c1ccc(Cl)s1 (single isomer, unassigned) [Compound 58] |
| 88.5 | 57.1 | 754 | ≥ 20000 | 2200 | 9.5 | 4.9 | CNC[C@@H](c1ccc(Cl)c(Cl)c1)[C@@H](O)c1cccc(N(C)C)c1 (single isomer, unassigned) [Compound 108] |
| 195 | 39.7 | 1690 | 20000 | 15000 | 9.4 | – | CNC[C@@H](c1ccc(Cl)c(Cl)c1)[C@@H](O)c1cccc([S+](C)[O-])c1 (single isomer, unassigned) [Compound 116] |
| 4570 | 87.3 | 3370 | – | 3700 | 4.6 | – | O[C@@H](c1ccccc1)[C@@H](CNCC(F)(F)F)c1ccc2ccccc2c1 (single isomer, unassigned) [Compound 130] |
| 89.3 | 144 | 178 | 4600 | 780 | 9.5 | 4.9 | CNC[C@H](c1ccc(Cl)c(Cl)c1)[C@H](O)c1cccc(N(C)C)c1 (single isomer, unassigned) [Compound 168] |
| 1.4 | 10.9 | 2.5 | 20000 | 300 | 6.6 | – | CN1CO[C@H](c2ccccc2)[C@@H](c2ccc3ccccc3c2)C1 [Compound 4] |
| 1.6 | 52.6 | 2.7 | 20000 | 880 | 9.6 | 5.4 | CNC[C@H](c1ccc2ccccc2c1)[C@H](O)c1ccncc1 [Compound 12] |
| 2.2 | 21.9 | 71.4 | 20000 | 1400 | 9.4 | 4.3 | CNC[C@H](c1ccc(Cl)c(Cl)c1)[C@H](O)c1cccc(N)c1 [Compound 24] |
| 2.7 | 15.8 | 0.7 | 20000 | 560 | 9.6 | – | CNC[C@H](c1ccc2ccccc2c1)[C@H](OCCO)c1ccccc1 [Compound 32] |
| 290 | 379 | 12 | – | 6600 | 8.2 | – | CN1CCO[C@@H](c2ccccc2)[C@@H](c2ccc3ccccc3c2)C1 [Compound 123] |
| 338 | 15.3 | 167 | – | 3000 | 8.2 | – | CN1CCO[C@@H](c2ccccc2)[C@H](c2ccc3ccccc3c2)C1 [Compound 124] |

| SMILES | Ki [1] [nM] | Ki [2] [nM] | Ki [3] [nM] | IC50 [4] [nM] | IC50 [5] [nM] | pKa [6, 7] | pKa [6, 8] |
| --- | --- | --- | --- | --- | --- | --- | --- |
| CN1C[C@H](c2ccc3ccccc3c2)[C@@H](c2ccccc2)OCC1=O [Compound 129] | 3670 | 43.5 | 3370 | 20000 | 20000 | – | – |
